In patent US20210323977A1, “PYRROLIDINYL AMIDE COMPOUNDS FOR THE TREATMENT OF AUTOIMMUNE DISEASE” (Hoffmann-La Roche Inc., priority 2018, published 2021) one finds IC50 data, which are given here for 23 compounds.

Broadly, the IC50 is the midpoint of a concentration-inhibition curve. Read a low IC50 as greater potency in that assay.

This assay deals with T1, human TLR7 (Homo sapiens, UniProt Q9NYK1).
T1 sequence (Q9NYK1 27-1049): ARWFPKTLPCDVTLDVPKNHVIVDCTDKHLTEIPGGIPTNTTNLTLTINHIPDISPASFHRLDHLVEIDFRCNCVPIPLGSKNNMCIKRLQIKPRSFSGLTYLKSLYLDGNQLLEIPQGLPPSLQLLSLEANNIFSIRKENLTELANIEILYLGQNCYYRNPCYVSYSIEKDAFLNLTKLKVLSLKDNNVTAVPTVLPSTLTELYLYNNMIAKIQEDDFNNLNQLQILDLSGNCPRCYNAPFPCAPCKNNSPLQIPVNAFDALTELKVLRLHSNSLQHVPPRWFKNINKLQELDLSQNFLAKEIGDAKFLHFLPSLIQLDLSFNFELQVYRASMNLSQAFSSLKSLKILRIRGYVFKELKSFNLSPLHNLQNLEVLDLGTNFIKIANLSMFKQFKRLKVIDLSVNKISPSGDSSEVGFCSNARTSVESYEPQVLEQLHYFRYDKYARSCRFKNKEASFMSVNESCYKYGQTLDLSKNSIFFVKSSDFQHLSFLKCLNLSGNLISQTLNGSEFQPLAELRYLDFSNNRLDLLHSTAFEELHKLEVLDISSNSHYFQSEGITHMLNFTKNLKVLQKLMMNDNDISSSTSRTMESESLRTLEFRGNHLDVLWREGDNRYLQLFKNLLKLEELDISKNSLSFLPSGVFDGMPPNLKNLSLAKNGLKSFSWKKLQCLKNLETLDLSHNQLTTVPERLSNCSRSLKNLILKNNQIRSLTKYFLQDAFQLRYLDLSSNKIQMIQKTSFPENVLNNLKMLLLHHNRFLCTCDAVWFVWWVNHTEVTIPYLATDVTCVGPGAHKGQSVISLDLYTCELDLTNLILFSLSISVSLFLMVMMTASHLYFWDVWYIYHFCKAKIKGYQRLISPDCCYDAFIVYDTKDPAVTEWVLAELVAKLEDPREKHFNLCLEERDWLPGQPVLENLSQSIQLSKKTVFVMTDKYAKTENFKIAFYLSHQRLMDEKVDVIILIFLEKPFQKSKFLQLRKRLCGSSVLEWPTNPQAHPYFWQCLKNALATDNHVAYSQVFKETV
Kind of assay: HEK293-Blue-hTLR-7 cells assay. Type of assay: cell-based. The following applies: HEK293-Blue-hTLR7 cells, SEAP reporter, R848 stimulation, 20 hrs. The text has this: HEK293-Blue-hTLR-7 Cells Assay:
A stable HEK293-Blue-hTLR-7 cell line was purchased from InvivoGen (Cat. #: hkb-htlr7, San Diego, Calif., USA). These cells were originally designed for studying the stimulation of human TLR7 by monitoring the activation of NF-κB. A SEAP (secreted embryonic alkaline phosphatase) reporter gene was placed under the control of the IFN-β minimal promoter fused to five NF-κB and AP-1-binding sites. The SEAP was induced by activating NF-κB and AP-1 via stimulating HEK-Blue hTLR7 cells with TLR7 ligands. Therefore the reporter expression was declined by TLR7 antagonist under the stimulation of a ligand, such as R848 (Resiquimod), for incubation of 20 hrs. The cell culture supernatant SEAP reporter activity was determined using QUANTI-Blue™ kit (Cat. #: rep-qb1, Invivogen, San Diego, Ca, USA) at a wavelength of 640 nm, a detection medium that turns purple or blue in the presence of alkaline phosphatase.
HEK293-Blue-hTLR7 cells were incubated at a density of 250,000˜450,000 cells/mL in a volume of 170 μL in a 96-well plate in Dulbecco's Modified Eagle's medium (DMEM) containing 4.5 g/L glucose, 50 U/mL penicillin, […], […], 2 mM L-glutamine, 10% (v/v) heat-inactivated fetal bovine serum with addition of 20 sL test compound in a serial dilution in the presence of final DMSO at 1% and 10 μL of 20 uM R848 in above DMEM, perform incubation under 37° C. in a CO2 incubator for 20 hrs. Then 20 μL of the supernatant from each well was incubated with 180 sL Quanti-blue substrate solution at 37° C. for 2 hrs and the absorbance was read at 620-655 nm using a spectrophotometer. The signalling pathway that TLR7 activation leads to downstream NF-κB activation has been widely accepted, and therefore similar reporter assay was modified for evaluating TLR7 antagonist.
With `NC1CC(CNC(=O)C2CN(c3ccc(C(F)(F)F)c4nccnc34)CC23CC3)C1` (centres unmarked) [Example 31, N-[(3-aminocyclobutyl)methyl]-5-[8-(trifluoromethyl)quinoxalin-5-yl]-5-azaspiro[2.4]heptane-7-carboxamide], the IC50 was found to be 0.041 µM.

For the compound `N[C@H]1CC[C@@H](NC(=O)C2CN(c3ccc(C(F)(F)F)c4nccnc34)CC23CC3)CC1` (some centres unmarked) [Example 39, N-(4-Aminocyclohexyl)-5-[8-(trifluoromethyl)quinoxalin-5-yl]-5-azaspiro[2.4]heptane-7-carboxamide], the IC50 came out at 0.074 µM. On to `CN1CCC(NC(=O)C2CN(c3ccc(C#N)c4nccnc34)CC23CC3)CC1` (single isomer, unassigned) [Example 7A, 5-(8-Cyanoquinoxalin-5-yl)-N-(1-methyl-4-piperidyl)-5-azaspiro[2.4]heptane-7-carboxamide], for which the IC50 came to 0.004 µM. Take `CN1CCC(NC(=O)[C@@H]2CN(c3ccc(C#N)c4ncccc34)C[C@H]2C(F)(F)F)CC1` (relative stereo) [Example 17, Trans-1-(8-cyano-5-quinolyl)-N-(1-methyl-4-piperidyl)-4-(trifluoromethyl)pyrrolidine-3-carboxamide]: the IC50 was found to be 0.022 µM. The compound `C[C@@H]1CN(c2ccc(C#N)c3ncccc23)C[C@H]1C(=O)NC1CCCNCC1` (single isomer, unassigned) [Example 52A, Trans-N-(azepan-4-yl)-1-(8-cyano-5-quinolyl)-4-methyl-pyrrolidine-3-carboxamide] displayed an IC50 of 0.203 µM.

For the compound `CN1CCCC(CNC(=O)C2CN(c3ccc(C#N)c4ncccc34)CC23CC3)C1` (centres unmarked) [Example 51, 5-(8-Cyano-5-quinolyl)-N-[(1-methyl-3-piperidyl)methyl]-5-azaspiro[2.4]heptane-7-carboxamide], the IC50 was found to be 0.201 µM. `C[C@@H]1CN(c2ccc(C#N)c3ncccc23)C[C@H]1C(=O)NC1CCCNCC1` (single isomer, unassigned) [Example 52B, Trans-N-(azepan-4-yl)-1-(8-cyano-5-quinolyl)-4-methyl-pyrrolidine-3-carboxamide] returned a 50% inhibitory concentration (IC50) of 0.219 µM. Compound `O=C(NC1CC2CNCC(C2)C1)C1CN(c2ccc(C(F)(F)F)c3nccnc23)CC12CC2` (centres unmarked) [Example 15, N-(3-azabicyclo[3.3.1]nonan-7-yl)-5-[8-(trifluoromethyl)quinoxalin-5-yl]-5-azaspiro[2.4]heptane-7-carboxamide] came in with an IC50 of 0.021 µM. The result for `CN1CCC(NC(=O)C2CN(c3ccc(C#N)c4nccnc34)CC23CC3)CC1` (single isomer, unassigned) [Example 7B, 5-(8-Cyanoquinoxalin-5-yl)-N-(1-methyl-4-piperidyl)-5-azaspiro[2.4]heptane-7-carboxamide] reads 0.006 µM. The result for `O=C(NC1CC2CCC(C1)N2)C1CN(c2ccc(C(F)(F)F)c3nccnc23)CC12CC2` (centres unmarked) [Example 23, N-(8-azabicyclo[3.2.1]octan-3-yl)-5-[8-(trifluoromethyl)quinoxalin-5-yl]-5-azaspiro[2.4]heptane-7-carboxamide] reads 0.028 µM.

`CN1CCC(NC(=O)[C@@H]2CN(c3ccc(Cl)c4ncccc34)C[C@H]2C(F)(F)F)CC1` (relative stereo) [Example 46, Trans-1-(8-chloro-5-quinolyl)-N-(1-methyl-4-piperidyl)-4-(trifluoromethyl)pyrrolidine-3-carboxamide] returned an IC50 of 0.108 µM. As for `CC(C)[C@@H]1CN(c2ccc(C#N)c3ncccc23)C[C@H]1C(=O)NC1CCN(C)CC1` (relative stereo) [Example 37, Trans-1-(8-cyano-5-quinolyl)-4-isopropyl-N-(1-methyl-4-piperidyl)pyrrolidine-3-carboxamide], 0.059 µM corresponded to half-maximal inhibition (IC50). For the compound `C[C@H]1CN(c2ccc(C#N)c3ncccc23)C[C@@H]1C(=O)NC1CCN(C)CC1` [Example 16, (3R,4R)-1-(8-cyano-5-quinolyl)-4-methyl-N-(1-methyl-4-piperidyl)pyrrolidine-3-carboxamide], the midpoint of inhibition, the IC50, lay at 0.022 µM. In turn, `N#Cc1ccc(N2CC(C(=O)NC[C@@H]3CNCCO3)C3(CC3)C2)c2nccnc12` (single isomer, unassigned) [Example 71A] came in with an IC50 of 0.021 µM. Consider `O=C(NC1CC2CNCC2C1)C1CN(c2ccc(C(F)(F)F)c3nccnc23)CC12CC2` (centres unmarked) [Example 21, N-(1,2,3,3a,4,5,6,6a-octahydrocyclopenta[c]pyrrol-5-yl)-5-[8-(trifluoromethyl)quinoxalin-5-yl]-5-azaspiro[2.4]heptane-7-carboxamide], for which the IC50 stood at 0.028 µM. Compound `CN(C)CC1CC(NC(=O)C2CN(c3ccc(C(F)(F)F)c4nccnc34)CC23CC3)C1` (centres unmarked) [Example 26, N-[3-[(dimethylamino)methyl]cyclobutyl]-5-[8-(trifluoromethyl)quinoxalin-5-yl]-5-azaspiro[2.4]heptane-7-carboxamide] returned an IC50 of 0.036 µM.

`N[C@@H]1C[C@H](NC(=O)C2CN(c3ccc(C(F)(F)F)c4nccnc34)CC23CC3)[C@@H]2C[C@@H]21` (stereo partly drawn) [Example 36, N-[(1R,2S,4R,5S)-4-amino-2-bicyclo[3.1.0]hexanyl]-5-[8-(trifluoromethyl)quinoxalin-5-yl]-5-azaspiro[2.4]heptane-7-carboxamide] gave an IC50 of 0.057 µM. Turning to `C[C@@H]1CN(c2ccc(C(F)(F)F)c3nccnc23)C[C@H]1C(=O)NC1CCN(C)CC1` [Example 25, (3S,4S)-4-Methyl-N-(1-methyl-4-piperidyl)-1-[8-(trifluoromethyl)quinoxalin-5-yl]pyrrolidine-3-carboxamide], the IC50 was 0.033 µM. As to `N#Cc1ccc(N2C[C@H](C(=O)NC3CCN(C4CCNCC4)CC3)[C@@H](C(F)(F)F)C2)c2nccnc12` [Example 35, (3R,4R)-1-(8-Cyanoquinoxalin-5-yl)-N-[1-(4-piperidyl)-4-piperidyl]-4-(trifluoromethyl)pyrrolidine-3-carboxamide], the IC50 came to 0.055 µM. Turning to `CN1CCC(NC(=O)[C@H]2CN(c3ccc(C#N)c4nccnc34)C[C@@H]2C(F)(F)F)CC1` [Example 1, (3R,4R)-1-(8-cyanoquinoxalin-5-yl)-N-(1-methyl-4-piperidyl)-4-(trifluoromethyl) pyrrolidine-3-carboxamide], inhibition was half-maximal at 0.003 µM (IC50). For `CN1CCC(NC(=O)[C@H]2CN(c3ccc(C(F)(F)F)c4nccnc34)C[C@@H]2C(F)(F)F)CC1` [Example 2, (3R,4R)—N-(1-methyl-4-piperidyl)-4-(trifluoromethyl)-1-[8-(trifluoromethyl)quinoxalin-5-yl]pyrrolidine-3-carboxamide], the midpoint of inhibition, the IC50, lay at 0.004 µM. Regarding `N[C@@H]1CCC[C@H](NC(=O)C2CN(c3ccc(C(F)(F)F)c4nccnc34)CC23CC3)C1` (relative stereo) [Example 43, Cis-N-(3-aminocyclohexyl)-5-[8-(trifluoromethyl)quinoxalin-5-yl]-5-azaspiro[2.4]heptane-7-carboxamide], inhibition was half-maximal at 0.081 µM (IC50). The result for `CN1CCC(NC(=O)[C@H]2CN(c3ccc(C#N)c4ncccc34)C[C@@H]2C(F)(F)F)CC1` [Example 4, (3R,4R)-1-(8-cyano-5-quinolyl)-N-(1-methyl-4-piperidyl)-4-(trifluoromethyl)pyrrolidine-3-carboxamide] reads 0.009 µM.
